Activity calls are given as the source filed them.
Experiments:
[1] = target: T1, Carboxy-terminal domain RNA polymerase II polypeptide A small phosphatase 1 (Homo sapiens, UniProt Q9GZU7); test: CTDSP1 inhibitors, concentration-response, biochemical, absorbance readout, ultra-high-throughput screen actives (AID 540297); format: functional
T1 sequence (Q9GZU7 whole entry): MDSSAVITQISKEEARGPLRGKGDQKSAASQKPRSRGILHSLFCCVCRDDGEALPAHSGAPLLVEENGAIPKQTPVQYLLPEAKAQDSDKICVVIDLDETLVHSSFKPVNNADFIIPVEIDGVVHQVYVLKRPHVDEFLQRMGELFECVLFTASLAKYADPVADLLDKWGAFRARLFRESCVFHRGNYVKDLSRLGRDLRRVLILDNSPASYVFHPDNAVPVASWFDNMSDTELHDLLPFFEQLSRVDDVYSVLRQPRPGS

[2] = Luminescence Cell-Based Dose Retest to Confirm Inhibitors of Cancer Stem Cells. [Related pubchem assays (depositor defined):AID2717, AID2721]; format: functional; conditions: Homo sapiens
[3] = target: T2, Calpain-2 catalytic subunit (Sus scrofa, UniProt P43367); test: m-calpain protease blockers, concentration series – biochemical, fluorogenic peptide substrate, dose response (AID 1420); format: functional
T2 sequence (P43367 whole entry): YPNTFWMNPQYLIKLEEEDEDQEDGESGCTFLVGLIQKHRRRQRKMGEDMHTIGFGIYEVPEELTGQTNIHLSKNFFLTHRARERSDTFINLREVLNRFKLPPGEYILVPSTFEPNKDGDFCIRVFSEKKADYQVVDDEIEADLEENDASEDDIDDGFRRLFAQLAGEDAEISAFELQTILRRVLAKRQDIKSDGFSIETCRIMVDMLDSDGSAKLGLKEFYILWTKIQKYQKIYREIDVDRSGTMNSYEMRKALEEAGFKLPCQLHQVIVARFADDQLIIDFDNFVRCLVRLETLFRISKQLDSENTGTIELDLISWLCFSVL

Cytochrome P450 1A2 = target: T3, Cytochrome P450 1A2 (Homo sapiens, UniProt P05177);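 further: PubChem cytochrome P450 panel assay, CYP1A2 panel member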
T3 sequence (P05177 whole entry): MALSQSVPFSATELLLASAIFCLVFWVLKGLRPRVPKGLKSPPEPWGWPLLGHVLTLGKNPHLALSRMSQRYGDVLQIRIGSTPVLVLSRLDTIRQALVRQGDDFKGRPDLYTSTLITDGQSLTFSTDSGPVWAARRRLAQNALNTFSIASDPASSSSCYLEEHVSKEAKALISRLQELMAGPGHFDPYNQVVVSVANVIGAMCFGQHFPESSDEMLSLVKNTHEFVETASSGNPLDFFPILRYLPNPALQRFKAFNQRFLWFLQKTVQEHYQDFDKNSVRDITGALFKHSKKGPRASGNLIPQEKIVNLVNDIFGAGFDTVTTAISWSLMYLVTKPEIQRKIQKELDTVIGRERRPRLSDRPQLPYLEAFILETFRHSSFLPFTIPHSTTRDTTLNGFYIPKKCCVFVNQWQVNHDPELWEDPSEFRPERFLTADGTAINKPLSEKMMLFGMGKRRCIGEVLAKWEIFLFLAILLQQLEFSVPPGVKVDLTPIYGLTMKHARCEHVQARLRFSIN

Cytochrome P450 3A4 = Cytochrome P450 3A4 (Homo sapiens, UniProt P08684);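 further: CYP3A4 tested as one member of a cytochrome P450 panel screen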
Cytochrome P450 2C9 = Cytochrome P450 2C9 (Homo sapiens, UniProt P11712)
[4] = Luminescence Cell-Based Dose Confirmation HTS to Identify Activators of 5'UTR Stem-Loop Driven Alpha-Synuclein mRNA Translation in H4 Neuroglioblastoma Cells. [Related pubchem assays: 1829 (Project Summary), 1814 (Primary HTS)]; format: functional
[5] = Luminescence Cell-Based Dose Response HTS to Identify Activators of Luciferase Translation or Activity in H4 […] Cells. [Related pubchem assays: 1829 (Project Summary), 1814 (Primary HTS)]; format: functional
H4 = test: Luminescence Cell-Based Dose Response HTS to Identify Activators of 5'UTR Stem-Loop Driven Prion Protein mRNA Translation in H4 Neuroglioblastoma Cells. [Related pubchem assays: 1829 (Project Summary), 1814 (Primary HTS)]; format: functional; conditions: Homo sapiens
[6] = reduction of Shn3 3'UTR-driven luciferase in osteoblasts – cell-based, Clone20 osteoblasts, firefly luciferase, cherry-picked, dose response (AID 624132); format: functional;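 further: firefly luciferase luminescence from reporter carrying the Shn3 3'UTR in osteoblasts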
[7] = loss of viability in HepG2 cells – cell-based, CellTiter-Glo, cherry-picked, cytotoxicity control for Shn3 inhibitor project, dose response (AID 624134); format: functional
Cytochrome P450 2C19 = Cytochrome P450 2C19 (Homo sapiens, UniProt P33261); test: Cytochrome panel assay with activity outcomes. Panel member name: p450-cyp2c19 Compounds with AC50 equal or less than 10 uM are considered active; format: functional; conditions: read-out: AC50
Cytochrome P450 2D6 = Cytochrome P450 2D6 (Homo sapiens, UniProt P10635);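 further: CYP2D6 member of a cytochrome P450 panel assay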
[8] = non-specific 3'UTR reporter inhibition in Clone20-Shn3RL – cell-based, Renilla luciferase, cherry-picked, counter-screen for Shn3 inhibitor project, dose response (AID 624133); format: functional
[9] = target: T4, Rac GTPase-activating protein 1 (Homo sapiens, UniProt Q9H0H5); test: blockers of MgcRacGAP-driven Rac1 GTP hydrolysis – biochemical, ADP Hunter fluorescence, primary and confirmatory, confirmation (AID 624330); format: functional
T4 sequence (Q9H0H5 whole entry): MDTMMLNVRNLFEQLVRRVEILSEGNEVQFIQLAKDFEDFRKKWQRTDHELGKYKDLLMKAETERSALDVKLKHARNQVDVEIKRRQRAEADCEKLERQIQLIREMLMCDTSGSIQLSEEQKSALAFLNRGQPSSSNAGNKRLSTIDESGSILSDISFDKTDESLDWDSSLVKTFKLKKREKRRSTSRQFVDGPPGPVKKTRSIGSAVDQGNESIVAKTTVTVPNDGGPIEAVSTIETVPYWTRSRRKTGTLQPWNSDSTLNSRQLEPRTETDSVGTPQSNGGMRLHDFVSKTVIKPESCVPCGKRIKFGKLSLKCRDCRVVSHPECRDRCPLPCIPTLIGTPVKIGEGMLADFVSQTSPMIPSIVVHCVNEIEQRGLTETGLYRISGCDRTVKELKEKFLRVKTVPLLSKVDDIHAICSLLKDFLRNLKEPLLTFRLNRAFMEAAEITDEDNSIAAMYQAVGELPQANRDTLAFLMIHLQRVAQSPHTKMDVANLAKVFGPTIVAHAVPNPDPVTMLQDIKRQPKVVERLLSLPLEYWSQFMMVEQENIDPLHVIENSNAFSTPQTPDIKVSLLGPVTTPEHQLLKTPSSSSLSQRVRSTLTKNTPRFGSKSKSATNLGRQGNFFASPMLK

[10] = viability of uninfected HEp-2 cells – cell-based, HTS, cytotoxicity control for RSV inhibitor project, dose response (AID 2410); format: functional; conditions: human respiratory syncytial virus

Cytochrome P450 3A4, sequence (P08684 whole entry): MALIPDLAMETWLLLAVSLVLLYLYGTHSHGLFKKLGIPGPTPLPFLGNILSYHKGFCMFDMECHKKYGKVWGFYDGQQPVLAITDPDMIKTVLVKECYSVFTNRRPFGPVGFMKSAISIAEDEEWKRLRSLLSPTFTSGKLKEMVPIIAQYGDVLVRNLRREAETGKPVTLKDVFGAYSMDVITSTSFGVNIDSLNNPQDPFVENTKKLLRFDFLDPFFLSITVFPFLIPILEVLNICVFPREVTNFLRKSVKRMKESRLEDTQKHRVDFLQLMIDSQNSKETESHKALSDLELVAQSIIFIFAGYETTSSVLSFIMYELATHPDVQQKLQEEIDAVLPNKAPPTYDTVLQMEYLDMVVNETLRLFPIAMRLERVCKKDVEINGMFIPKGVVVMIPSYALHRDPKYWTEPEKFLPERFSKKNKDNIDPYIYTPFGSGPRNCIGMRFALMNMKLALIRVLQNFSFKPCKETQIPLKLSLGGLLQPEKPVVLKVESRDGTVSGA
Cytochrome P450 2C9, sequence (P11712 whole entry): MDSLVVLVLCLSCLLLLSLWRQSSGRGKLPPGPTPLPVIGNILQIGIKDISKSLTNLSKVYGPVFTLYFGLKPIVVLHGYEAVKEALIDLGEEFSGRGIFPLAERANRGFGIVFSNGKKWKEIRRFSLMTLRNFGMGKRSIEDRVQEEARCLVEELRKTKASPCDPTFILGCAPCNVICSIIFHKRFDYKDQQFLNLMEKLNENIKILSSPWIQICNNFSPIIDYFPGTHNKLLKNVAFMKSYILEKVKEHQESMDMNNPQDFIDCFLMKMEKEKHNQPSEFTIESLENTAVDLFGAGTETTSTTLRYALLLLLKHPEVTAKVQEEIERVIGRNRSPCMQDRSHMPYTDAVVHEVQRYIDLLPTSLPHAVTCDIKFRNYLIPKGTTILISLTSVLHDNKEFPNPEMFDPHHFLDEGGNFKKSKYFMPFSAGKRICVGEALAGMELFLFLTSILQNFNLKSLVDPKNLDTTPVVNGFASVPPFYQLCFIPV
Cytochrome P450 2D6, sequence (P10635 whole entry): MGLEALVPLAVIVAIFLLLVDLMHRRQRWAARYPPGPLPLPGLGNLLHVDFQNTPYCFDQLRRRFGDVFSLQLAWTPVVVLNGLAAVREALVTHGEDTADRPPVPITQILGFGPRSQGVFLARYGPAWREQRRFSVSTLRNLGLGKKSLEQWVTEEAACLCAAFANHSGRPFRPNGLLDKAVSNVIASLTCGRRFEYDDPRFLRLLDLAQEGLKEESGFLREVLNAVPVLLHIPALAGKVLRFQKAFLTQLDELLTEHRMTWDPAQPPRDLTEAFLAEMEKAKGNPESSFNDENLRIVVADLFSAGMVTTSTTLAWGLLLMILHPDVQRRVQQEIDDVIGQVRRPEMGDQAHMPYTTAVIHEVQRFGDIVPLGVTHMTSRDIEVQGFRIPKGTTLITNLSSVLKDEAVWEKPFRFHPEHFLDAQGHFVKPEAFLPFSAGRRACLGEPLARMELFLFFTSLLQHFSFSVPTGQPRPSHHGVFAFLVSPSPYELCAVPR
Cytochrome P450 2C19, sequence (P33261 whole entry): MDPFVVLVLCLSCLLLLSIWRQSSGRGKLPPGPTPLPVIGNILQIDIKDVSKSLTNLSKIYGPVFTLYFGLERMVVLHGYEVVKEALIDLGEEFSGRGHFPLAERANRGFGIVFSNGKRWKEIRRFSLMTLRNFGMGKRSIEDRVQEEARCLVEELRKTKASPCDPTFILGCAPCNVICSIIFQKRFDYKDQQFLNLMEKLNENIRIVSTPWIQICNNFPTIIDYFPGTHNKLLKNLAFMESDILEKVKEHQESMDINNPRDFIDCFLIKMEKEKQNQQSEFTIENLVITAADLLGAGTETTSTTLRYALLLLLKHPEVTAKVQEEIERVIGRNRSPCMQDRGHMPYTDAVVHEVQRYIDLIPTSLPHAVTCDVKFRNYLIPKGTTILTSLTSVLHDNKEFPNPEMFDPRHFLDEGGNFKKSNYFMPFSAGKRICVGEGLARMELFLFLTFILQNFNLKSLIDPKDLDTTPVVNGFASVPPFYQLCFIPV

## Cc1cccc(C(=O)NNC(=O)c2ccc(-c3ccccc3)cc2)c1
[1]
  IC50: 5.8 µM (active)

## COc1cc(/C=C2/CCC/C(=C\c3cc(O)c(OC)c(Cl)c3)C2=O)cc(Cl)c1O
[2]
  AC50: 0.629 µM (active)

## O=C(Nc1cccc2oc(=O)ccc12)c1ccc([N+](=O)[O-])cc1[N+](=O)[O-]
[3]
  IC50: 5.83 µM (active)

## Cc1nc(SCC(=O)NCCc2ccccc2)c2oc3ccccc3c2n1
Cytochrome P450 1A2
  AC50: 0.562 µM (inconclusive)
Cytochrome P450 3A4
  AC50: 39.8 µM (inconclusive)
Cytochrome P450 2C9
  AC50: 0.398 µM (inconclusive)

## O=S(=O)(Nc1ccc2[nH]c(-c3ccco3)nc2c1)c1ccccc1
[4]
  EC50: 14.8 µM (active)
[5]
  EC50: 36.8 µM (active)
H4
  EC50: 17.3 µM (active)

## CC(C)(C)c1nc(NCCN2CCOCC2)c2nnn(Cc3ccccc3Cl)c2n1
[6]
  AC50: 8.85 µM (active)
[7]
  AC50: 56.5 µM (active)

## COc1ccc(-n2c(=O)c(C)nc3cnc(Oc4cccc(Cl)c4)nc32)cc1
Cytochrome P450 2C19
  AC50: 39.8 µM (inconclusive)
Cytochrome P450 2D6
  AC50: 25.1 µM (inconclusive)
Cytochrome P450 3A4
  AC50: 3.16 µM (inconclusive)
Cytochrome P450 2C9
  AC50: 25.1 µM (inconclusive)

## COc1ccc(-n2nc(C(=O)NCC(=O)N3CCN(c4ccccc4F)CC3)c3ccccc3c2=O)cc1
[4]
  EC50: 27.8 µM (active)
[5]
  EC50: 8.08 µM (active)
H4
  EC50: 95.7 µM (active)

## COc1ccc(NC(=O)c2c3c(nc4ccccc24)CCC3)cc1S(=O)(=O)N1CCOCC1
[1]
  IC50: 3.75 µM (active)

## Sc1nnc(Cn2c(-c3ccccn3)nc3ccccc32)n1-c1ccc2c(c1)OCCO2
[4]
  EC50: 12.5 µM (active)
[5]
  EC50: 14.9 µM (active)
H4
  EC50: 29.5 µM (active)

## CCN(CC)c1ccc(/C=C2/SC(=O)N(C(C)C)C2=O)o1
[6]
  AC50: 3.46 µM (active)
[7]
  AC50: 58.9 µM (active)
[8]
  AC50: 7.5 µM (active)
[9]
  IC50: 48.2 µM (active)

## Cc1cc(C=C(C#N)C#N)c(C)n1-c1ccccc1
Cytochrome P450 1A2
  AC50: 2.24 µM (inconclusive)
Cytochrome P450 2C9
  AC50: 1.12 µM (inconclusive)

## CCOCC(=O)Nc1nnc(C2CCCCC2)s1
[4]
  EC50: > 120 µM (not active)
[5]
  EC50: 83 µM (active)
H4
  EC50: > 120 µM (not active)

## O=C(Nc1ccccc1)C1=C[C@@H](c2ccc(C(F)(F)F)cc2)C[C@@H](OCc2ccc(CO)cc2)O1
[2]
  AC50: 5.5 µM (active)

## Oc1ccc(N=Nc2ccc(Br)cc2)c(O)c1
[2]
  AC50: 4.2 µM (active)

## CCOC(=O)c1cnn(-c2ncnc3c2cnn3C)c1N
[4]
  EC50: 31.6 µM (active)
[5]
  EC50: 10.9 µM (active)
H4
  EC50: 90.5 µM (active)

## COc1cc(F)c(C2=CC(=O)C[C@H](c3ccc(Cl)cc3)C2)cc1F
[2]
  AC50: 1.43 µM (active)

## COc1ccc(CNC(=O)CCCn2nc([N+](=O)[O-])cc2C)cc1
[3]
  IC50: < 0.4 µM (not active)

## Cc1ccc(/C=C\c2[nH]ccc3c4ccccc4nc2-3)cc1
[10]
  CC50: 28.9 µM (active)
[2]
  AC50: 17.4 µM (active)

## COc1cccc(NC(=O)CN(C)C(=O)c2cc(-c3ccco3)nc3ccccc23)c1
[1]
  IC50: 6.41 µM (active)

## COc1ccc(/C=C2\C(=O)NC(=S)N(C)C2=O)cc1C
[1]
  IC50: 0.632 µM (active)
[9]
  IC50: 21.4 µM (active)

## O=C(NN=C1CCCC1)c1cc(O)cc(O)c1
[1]
  IC50: 10.2 µM (active)

## CCn1c(O)cc(=O)nc1SCC(=O)Nc1ccc(C)cc1
[4]
  EC50: > 120 µM (not active)
[5]
  EC50: > 120 µM (not active)
H4
  EC50: > 120 µM (not active)

## N#Cc1nc(COc2ccccc2)oc1N1CCN(c2cccc(Cl)c2)CC1
[3]
  IC50: 34.3 µM (not active)

## Cc1sc2ncnc(N3CCC(C(=O)Nc4nc5ccc(Cl)cc5s4)CC3)c2c1C
[4]
  EC50: 8.58 µM (active)
[5]
  EC50: 19.2 µM (active)
H4
  EC50: 28.5 µM (active)

## CCCCc1nc2cc(C(=O)N(C)C3CCOCC3)ccc2o1
[4]
  EC50: 1.36 µM (active)
[5]
  EC50: 15 µM (active)
H4
  EC50: 0.399 µM (active)

## Cc1c(N2C(=O)/C(=C3/C(=O)N(C)c4ccccc43)SC2=S)c(=O)n(-c2ccccc2)n1C
Cytochrome P450 2D6
  AC50: 7.94 µM (inconclusive)
Cytochrome P450 1A2
  AC50: 25.1 µM (inconclusive)
Cytochrome P450 3A4
  AC50: 15.8 µM (inconclusive)
Cytochrome P450 2C9
  AC50: 12.6 µM (inconclusive)

## CCN1C(=O)/C(=C\N2CCCCCC2)SC1=S
[4]
  EC50: > 120 µM (not active)
[5]
  EC50: 7.47 µM (active)
H4
  EC50: 12.8 µM (active)

## COC(=O)c1ccc(S(=O)(=O)N2CCCN(Cc3ccccc3)CC2)n1C
[6]
  AC50: 51.1 µM (active)
[7]
  AC50: 69.6 µM (active)
[8]
  AC50: 28 µM (active)

## Cc1ccc(NC(=O)C2CCC(C(C)(C)C)CC2)cc1S(=O)(=O)N1CCOCC1 (stereo not drawn)
[6]
  AC50: 12.2 µM (active)
[7]
  AC50: 53.1 µM (active)

## O=S(=O)(c1cccs1)N1CCN(CCOc2ccc(Cl)cc2)CC1
[6]
  AC50: 13.8 µM (active)
[7]
  AC50: 37.6 µM (active)
[8]
  AC50: 23.9 µM (active)

## COc1ccccc1/C=N/NC(=S)NCc1ccco1
[3]
  IC50: 8.4 µM (active)

## COc1ccc(NC(=O)Cn2nnc(-c3ccccc3NC(=O)c3cccs3)n2)cc1
[4]
  EC50: > 120 µM (not active)
[5]
  EC50: 3.68 µM (active)
H4
  EC50: > 120 µM (not active)
